Laboratory results as given in patent publication US20140357577A1, “HIV Membrane Fusion Inhibitors” (priority 2011, published 2014).
Starred links: 1 amine or outer side, 2 acyl side, 3 side chain; linkers in the order of their positions; H or OH if unused. *: point of attachment. cholesteryl‑succinyl = CC(C)CCC[C@@H](C)[C@H]1CC[C@H]2[C@@H]3CC=C4C[C@@H](OC(=O)CCC(=O)*)CC[C@]4(C)[C@H]3CC[C@]12C; Suc = O=C(CCC(=O)[*:2])[*:1]; Hexanoyl = CCCCCC(=O)*; Pentanoyl = CCCCC(=O)*

What was measured:
[1] = tested on: HIV-IIIB + 50% HS; experiment: Standard AVE (50% Human Serum), HIV-1 replication assay in MT4-LTR-EGFP cells; assay type: cell-based; conditions: fold change vs EC50 in the assay without human serum
Excerpt: The HIV-1 replication assay (with 50% human serum) measures virus replication as an induction of enhanced green fluorescent protein (EGFP) expression, in the presence of 50% human serum. The indicator MT4-LTR-EGFP cells contain an EGFP gene under the control of the HIV-1 LTR promoter sequence. Successful HIV-1 infection results in viral Tat protein expression and subsequent induction of EGFP expression. Compounds/peptides inhibiting HIV-1 infection are expected to reduce EGFP expression as compared to the untreated HIV-infected control. Compounds/peptides binding to human serum are expected to have a reduced activity for inhibiting the virus in the assay.
Serial 4-fold dilutions of test compounds/peptides were mixed with HIV-1 and MT4-LTR-EGFP cells and incubated at 37° C., in the presence of 50% human serum. After 3 days, the wells were examined for EGFP expression using an argon laser-scanning microscope. The effective compound/peptide concentration inhibiting 50% of the virus-induced EGFP signal (EC50) was determined by linear interpolation of the EGFP signal vs. logarithm of the compound concentration; T20, C34 and Sifuvirtide were added as reference compounds. Results were reported as a fold change in EC50, as compared with the acquired EC50 in the assay without human serum.

[2] = tested on: HIV mutant virus strain HXB2D with mutation Q40H in the gp41 gene; experiment: Standard AVE, HXB2D site directed mutant Q40H; assay type: cell-based, HIV-1; conditions: fold change vs wild type strain HXB2D
Excerpt: • Standard Anti-Viral-Experiment “AVE” (wild type HIV strain IIIB+HIV strain HXB2D side directed mutants V38A and Q40H)
The HIV-1 replication assay measures virus replication (HIV wild type virus strain 111B or HXB2D, or a HIV mutant virus strain HXB2D with mutation V38A or Q40H in the gp41 gene) as an induction of enhanced green fluorescent protein (EGFP) expression. The indicator MT4-LTR-EGFP cells contain an EGFP gene under the control of the HIV-1 LTR promoter sequence. Successful HIV-1 infection results in viral Tat protein expression and subsequent induction of EGFP expression. Compounds/peptides inhibiting HIV-1 infection are expected to reduce EGFP expression as compared to the untreated HIV-infected control.
Serial 4-fold dilutions of test compounds/peptides were mixed with HIV-1 (IIIB, HXB2D, or a HXB2D mutant virus (V38A or Q40H)) and MT4-LTR-EGFP cells and incubated at 37° C. After 3 days, the wells were examined for EGFP expression using an argon laser-scanning microscope. The effective compound/peptide concentration inhibiting 50% of the virus-induced EGFP signal (EC50) was determined by linear interpolation of the EGFP signal vs. logarithm of the compound concentration; (T20, C34 and Sifuvirtide were added as reference compounds). For the V38A and Q40H mutant viruses, results were reported as a fold change in EC50, as compared with a drug-susceptible wild type strain HXB2D, which forms the backbone of the mutant virus. • Standard AVE (50% Human Serum)

[3] = tested on: HIV wild type virus strain IIIB; experiment: Standard Anti-Viral-Experiment (AVE), HIV-1 replication assay in MT4-LTR-EGFP cells, wild type IIIB; assay type: cell-based; conditions: 3 days, EGFP signal
Summary of the method: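 MT4-LTR-EGFP cells infected with HIV-1 IIIB, HXB2D or HXB2D gp41 mutants V38A/Q40H alongside serial 4-fold compound dilutions, 3 days at 37° C. EGFP read by laser-scanning microscopy; EC50 by linear interpolation against log concentration. Mutant results given as fold change in EC50 versus wild-type HXB2D.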

Row | Substance | HIV-IIIB + 50% HS (Fold change in EC50) [1] | HIV-HXB2D Q40H mutant (fold change in EC50) [2] | EC50 [3] [nM]
1 | Ac-ECYLACIEELIRKAQEQQEKNEAALR-NH2 [Peptide 37] | 0.7 | 108 | –
2 | Ac-ACYAACIEALIRAAQEQQEKNEAALR-NH2 [Peptide 68] | 2 | >67 | –
3 | AC-ECYLACIEALIRAAQEQQEKNEAALR-NH2 [Peptide 45] | 1 | 64 | –
4 | Hexanoyl-ECYLACIEELIRKAQEQQEKNEAALR-NH2 (cysteine pairing not given here) [Peptide 42] | – | 27 | 1
5 | Ac-ANYLALIEALIRAAQEQQEKNEAALRGSGK(cholesteryl-succinyl)-NH2 (Ac-ANYLALIEALIRAAQEQQEKNEAALRGSGK(cholesteryl‑succinyl)-NH2; SMILES CC[C@H](C)[C@H](NC(=O)[C@H](CC(C)C)NC(=O)[C@H](C)NC(=O)[C@H](CCC(=O)O)NC(=O)[C@@H](NC(=O)[C@H](CC(C)C)NC(=O)[C@H](C)NC(=O)[C@H](CC(C)C)NC(=O)[C@H](Cc1ccc(O)cc1)NC(=O)[C@H](CC(N)=O)NC(=O)[C@H](C)NC(C)=O)[C@@H](C)CC)C(=O)N[C@@H](CCCNC(=N)N)C(=O)N[C@@H](C)C(=O)N[C@@H](C)C(=O)N[C@@H](CCC(N)=O)C(=O)N[C@@H](CCC(=O)O)C(=O)N[C@@H](CCC(N)=O)C(=O)N[C@@H](CCC(N)=O)C(=O)N[C@@H](CCC(=O)O)C(=O)N[C@@H](CCCCN)C(=O)N[C@@H](CC(N)=O)C(=O)N[C@@H](CCC(=O)O)C(=O)N[C@@H](C)C(=O)N[C@@H](C)C(=O)N[C@@H](CC(C)C)C(=O)N[C@@H](CCCNC(=N)N)C(=O)NCC(=O)N[C@@H](CO)C(=O)NCC(=O)N[C@@H](CCCCNC(=O)CCC(=O)O[C@H]1CC[C@@]2(C)C(=CC[C@H]3[C@@H]4CC[C@H]([C@H](C)CCCC(C)C)[C@@]4(C)CC[C@@H]32)C1)C(N)=O) [Peptide 69] | – | 11 | 0.3
6 | Suc-ENYLALIEELIRKAQEQQEKNEAALR-NH2 (SMILES CC[C@H](C)[C@H](NC(=O)[C@H](CC(C)C)NC(=O)[C@H](C)NC(=O)[C@H](CC(C)C)NC(=O)[C@H](Cc1ccc(O)cc1)NC(=O)[C@H](CC(N)=O)NC(=O)[C@H](CCC(=O)O)NC(=O)CCC(=O)O)C(=O)N[C@@H](CCC(=O)O)C(=O)N[C@@H](CCC(=O)O)C(=O)N[C@@H](CC(C)C)C(=O)N[C@H](C(=O)N[C@@H](CCCNC(=N)N)C(=O)N[C@@H](CCCCN)C(=O)N[C@@H](C)C(=O)N[C@@H](CCC(N)=O)C(=O)N[C@@H](CCC(=O)O)C(=O)N[C@@H](CCC(N)=O)C(=O)N[C@@H](CCC(N)=O)C(=O)N[C@@H](CCC(=O)O)C(=O)N[C@@H](CCCCN)C(=O)N[C@@H](CC(N)=O)C(=O)N[C@@H](CCC(=O)O)C(=O)N[C@@H](C)C(=O)N[C@@H](C)C(=O)N[C@@H](CC(C)C)C(=O)N[C@@H](CCCNC(=N)N)C(N)=O)[C@@H](C)CC) [Peptide 19] | – | 151 | 1
7 | Pentanoyl-ECYLACIEELIRKAQEQQEKNEAALR-NH2 (cysteine pairing not given here) [Peptide 41] | – | 42 | 1
8 | Pentanoyl-ECYLACIEALIRAAQEQQEKNEAALR-NH2 (cysteine pairing not given here) [Peptide 38] | – | 45 | 1
